Where a name gives a salt, the structure may show the parent alone.
What follows are molecules tested against T1, RIPK1 (Homo sapiens, UniProt Q13546) (assay: RIPK1-ADP-Glo enzymatic assay). Settings: ADP-Glo luminescent ADP detection; 25 nM GST-RIPK1 kinase domain (residues 1-327), 300 μM ATP, dephosphorylated-MBP substrate; 30 min pre-incubation, 150 min reaction.
T1 construct: recombinant GST-RIPK1 kinase domain (residues 1-327) enzyme produced from baculovirus-transfected Sf21 cells; host or cells: baculovirus-transfected Sf21 insect cells
T1 sequence (Q13546 1-327): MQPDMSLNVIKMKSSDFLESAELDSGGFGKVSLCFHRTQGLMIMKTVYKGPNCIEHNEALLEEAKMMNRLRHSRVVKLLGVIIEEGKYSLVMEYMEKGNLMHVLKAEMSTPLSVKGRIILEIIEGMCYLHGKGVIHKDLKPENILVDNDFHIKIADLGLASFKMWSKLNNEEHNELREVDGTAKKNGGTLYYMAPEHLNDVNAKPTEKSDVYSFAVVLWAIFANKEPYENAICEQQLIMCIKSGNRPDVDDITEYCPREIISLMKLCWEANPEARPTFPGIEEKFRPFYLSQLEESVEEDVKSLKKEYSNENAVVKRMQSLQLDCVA
Assay type: biochemical
In short: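 GST-RIPK1 kinase domain (residues 1-327, Sf21-expressed), 25 nM final, pre-incubated 30 min with compound (10-point 1:3 series from 100000 nM), then reacted 150 min with 300 μM ATP and 3 μM dephosphorylated MBP in HEPES pH 7.3 buffer. ADP read by ADP-Glo luminescence; EC50 from four-parameter fit.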

SMILES | EC50
Cc1ncc([C@@H]2CC=NN2C(=O)N2C[C@H](Oc3ccc(F)cc3)[C@H]2C)cc1F [Example 2.23, ((S)-5-(5-fluoro-6-methylpyridin-3-yl)-4,5-dihydro-1H-pyrazol-1-yl)((2R,3S)-3-(4-fluorophenoxy)-2-methylazetidin-1-yl)methanone] | 10.1 nM
C[C@@H]1[C@@H](Oc2ccc(F)cc2)CN1C(=O)N1N=CC[C@H]1c1cncc(C#N)c1 [Example 2.24, 5-((S)-1-((2R,3S)-3-(4-fluorophenoxy)-2-methylazetidine-1-carbonyl)-4,5-dihydro-1H-pyrazol-5-yl)nicotinonitrile] | 11.4 nM
C[C@H]1[C@@H](Oc2ccc(F)cc2)CN1C(=O)N1N=CC[C@H]1c1cncc(C#N)c1 [Example 2.25, 5-((S)-1-((2S,3S)-3-(4-fluorophenoxy)-2-methylazetidine-1-carbonyl)-4,5-dihydro-1H-pyrazol-5-yl)nicotinonitrile] | 12.8 nM
C[C@@H]1[C@@H](Oc2ccc(F)cc2)CN1C(=O)N1N=CC[C@H]1c1cc(F)cc(F)c1 [Example 2.26, ((S)-5-(3,5-difluorophenyl)-4,5-dihydro-1H-pyrazol-1-yl)((2R,3S)-3-(4-fluorophenoxy)-2-methylazetidin-1-yl)methanone] | 7.8 nM
C[C@H]1[C@@H](Oc2ccc(F)cc2)CN1C(=O)N1N=CC[C@H]1c1cc(F)cc(F)c1 [Example 2.27, ((S)-5-(3,5-difluorophenyl)-4,5-dihydro-1H-pyrazol-1-yl)((2S,3S)-3-(4-fluorophenoxy)-2-methylazetidin-1-yl)methanone] | 6.8 nM
C[C@@H]1[C@@H](Oc2ccc(F)cc2)CN1C(=O)N1N=CC[C@H]1c1ccc(Cl)cc1 [Example 2.28, ((S)-5-(4-chlorophenyl)-4,5-dihydro-1H-pyrazol-1-yl)((2R,3S)-3-(4-fluorophenoxy)-2-methylazetidin-1-yl)methanone] | 5.9 nM
Cc1ncc([C@@H]2CC=NN2C(=O)N2CC(C)(Oc3ccc(F)cc3)C2)cc1F [Example 2.30, (S)-(5-(5-fluoro-6-methylpyridin-3-yl)-4,5-dihydro-1H-pyrazol-1-yl)(3-(4-fluorophenoxy)-3-methylazetidin-1-yl)methanone] | 14.2 nM
CC1(Oc2ccc(F)cc2)CN(C(=O)N2N=CC[C@H]2c2cncc(C#N)c2)C1 [Example 2.32, (S)-5-(1-(3-(4-fluorophenoxy)-3-methylazetidine-1-carbonyl)-4,5-dihydro-1H-pyrazol-5-yl)nicotinonitrile] | 25.5 nM
CC1(Oc2ccc(F)cc2)CN(C(=O)N2N=CC[C@H]2c2cc(F)cc(F)c2)C1 [Example 2.33, (S)-(5-(3,5-difluorophenyl)-4,5-dihydro-1H-pyrazol-1-yl)(3-(4-fluorophenoxy)-3-methylazetidin-1-yl)methanone] | 19.8 nM
CC1(Oc2ccc(F)cc2)CN(C(=O)N2N=CC[C@H]2c2ccc(Cl)cc2)C1 [Example 2.34, (S)-(5-(4-chlorophenyl)-4,5-dihydro-1H-pyrazol-1-yl)(3-(4-fluorophenoxy)-3-methylazetidin-1-yl)methanone] | 12.7 nM
CC1(Oc2ccnc(C#N)c2)CN(C(=O)N2N=CC[C@H]2c2cc(F)cc(F)c2)C1 [Example 2.35, (S)-4-((1-(5-(3,5-difluorophenyl)-4,5-dihydro-1H-pyrazole-1-carbonyl)-3-methylazetidin-3-yl)oxy)picolinonitrile] | 24.2 nM
C[C@H]1[C@@H](Oc2ccnc(C#N)c2)CN1C(=O)N1N=CC[C@H]1c1cc(F)cc(F)c1 [Example 2.36, 4-(((25,3S)-1-((S)-5-(3,5-difluorophenyl)-4,5-dihydro-1H-pyrazole-1-carbonyl)-2-methylazetidin-3-yl)oxy)picolinonitrile] | 20.5 nM
C[C@@H]1[C@@H](Oc2ccnc(C#N)c2)CN1C(=O)N1N=CC[C@H]1c1cc(F)cc(F)c1 [Example 2.37, 4-(((2R,3S)-1-((S)-5-(3,5-difluorophenyl)-4,5-dihydro-1H-pyrazole-1-carbonyl)-2-methylazetidin-3-yl)oxy)picolinonitrile] | 6.6 nM
C[C@@H]1[C@H](Oc2ccnc(C#N)c2)CN1C(=O)N1N=CC[C@H]1c1cc(F)cc(F)c1 [Example 2.38, 4-(((2R,3R)-1-((S)-5-(3,5-difluorophenyl)-4,5-dihydro-1H-pyrazole-1-carbonyl)-2-methylazetidin-3-yl)oxy)picolinonitrile] | 85.9 nM
N#Cc1cncc([C@@H]2CC=NN2C(=O)N2CC(Oc3ccc(F)cc3)C2)c1 [Example 2.39, (S)-5-(1-(3-(4-fluorophenoxy)azetidine-1-carbonyl)-4,5-dihydro-1H-pyrazol-5-yl)nicotinonitrile] | 33.1 nM
N#Cc1cc(C(F)(F)C2CN(C(=O)N3N=CC[C@H]3c3cc(F)cc(F)c3)C2)ccn1 [Example 2.41, (S)-4-((1-(5-(3,5-difluorophenyl)-4,5-dihydro-1H-pyrazole-1-carbonyl)azetidin-3-yl)difluoromethyl)picolinonitrile] | 22.9 nM
N#Cc1cccc(OC2CN(C(=O)N3N=CC[C@H]3c3cc(F)cc(F)c3)C2)c1 [Example 2.44, (S)-3-((1-(5-(3,5-difluorophenyl)-4,5-dihydro-1H-pyrazole-1-carbonyl)azetidin-3-yl)oxy)benzonitrile] | 11.9 nM
CCC1(Oc2ccccc2)CN(C(=O)N2N=CC[C@H]2c2cc(F)cc(F)c2)C1 [Example 2.45, (S)-(5-(3,5-difluorophenyl)-4,5-dihydro-1H-pyrazol-1-yl)(3-ethyl-3-phenoxyazetidin-1-yl)methanone] | 57.4 nM
N#Cc1cc(CC2CN(C(=O)N3N=CC[C@H]3c3cc(F)cc(F)c3)C2)ccn1 [Example 2.46, (S)-4-((1-(5-(3,5-difluorophenyl)-4,5-dihydro-1H-pyrazole-1-carbonyl)azetidin-3-yl)methyl)picolinonitrile] | 46.3 nM
O=C(N1CC(OC2CCC2)C1)N1N=CC[C@H]1c1cc(F)cc(F)c1 [Example 2.47, (S)-(3-cyclobutoxyazetidin-1-yl)(5-(3,5-difluorophenyl)-4,5-dihydro-1H-pyrazol-1-yl)methanone] | 92.7 nM
N#Cc1cc(OC2CN(C(=O)N3N=CC[C@H]3c3cc(F)cc(F)c3)C2)ccn1 [Example 3.1, (S)-4-((1-(5-(3,5-difluorophenyl)-4,5-dihydro-1H-pyrazole-1-carbonyl)azetidin-3-yl)oxy)picolinonitrile, TFA Salt] | 6.6 nM
Cn1c(OC2CN(C(=O)N3N=CC[C@H]3c3cc(F)cc(F)c3)C2)nc2ccccc21 [Example 3.2, (S)-(5-(3,5-difluorophenyl)-4,5-dihydro-1H-pyrazol-1-yl)(3-((1-methyl-1H-benzo[d]imidazol-2-yl)oxy)azetidin-1-yl)methanone, TFA salt] | 97 nM
Cc1ncnc(OC2CN(C(=O)N3N=CC[C@H]3c3cc(F)cc(F)c3)C2)c1C [Example 3.3, (S)-(5-(3,5-difluorophenyl)-4,5-dihydro-1H-pyrazol-1-yl)(3-((5,6-dimethylpyrimidin-4-yl)oxy)azetidin-1-yl)methanone, TFA salt] | 75.9 nM
CSc1nc(C)cc(OC2CN(C(=O)N3N=CC[C@H]3c3cc(F)cc(F)c3)C2)n1 [Example 3.4, (S)-(5-(3,5-difluorophenyl)-4,5-dihydro-1H-pyrazol-1-yl)(3-((6-methyl-2-(methylthio)pyrimidin-4-yl)oxy)azetidin-1-yl)methanone, TFA salt] | 38.1 nM
Cc1csc(OC2CN(C(=O)N3N=CC[C@H]3c3cc(F)cc(F)c3)C2)n1 [Example 3.5, (S)-(5-(3,5-difluorophenyl)-4,5-dihydro-1H-pyrazol-1-yl)(3-((4-methylthiazol-2-yl)oxy)azetidin-1-yl)methanone, TFA salt] | 8.9 nM
O=C(N1CC(Oc2nc3ccncc3s2)C1)N1N=CC[C@H]1c1cc(F)cc(F)c1 [Example 3.6, (S)-(5-(3,5-difluorophenyl)-4,5-dihydro-1H-pyrazol-1-yl)(3-(thiazolo[5,4-c]pyridin-2-yloxy)azetidin-1-yl)methanone, TFA salt] | 18.2 nM
Cc1nc(OC2CN(C(=O)N3N=CC[C@H]3c3cc(F)cc(F)c3)C2)cc(C(C)(C)O)n1 [Example 3.7, (S)-(5-(3,5-difluorophenyl)-4,5-dihydro-1H-pyrazol-1-yl)(3-((6-(2-hydroxypropan-2-yl)-2-methylpyrimidin-4-yl)oxy)azetidin-1-yl)methanone, TFA salt] | 1490 nM
O=C(N1CC(Oc2ncc(Cn3cccn3)s2)C1)N1N=CC[C@H]1c1cc(F)cc(F)c1 [Example 3.8, (S)-(3-((5-((1H-pyrazol-1-yl)methyl)thiazol-2-yl)oxy)azetidin-1-yl)(5-(3,5-difluorophenyl)-4,5-dihydro-1H-pyrazol-1-yl)methanone, TFA salt] | 105 nM
